From patent US20230174662A1, “METHODS OF TREATING CASTRATE-RESISTANT PROSTATE CANCER” (FONDAZIONE PER L'ISTITUTO ONCOLOGICO DI RICERCA (IOR), priority 2019, published 2023)

Key:
CDCP1 in LNCaP ADS cells = settings: DHT stimulation 16 h after 2 days in FAD
Procedure: C. Left panel, Quantitative real time PCR analysis of CDCP1 mRNA levels in LNCaP grown in full media, full androgen depreviation (FAD) and stimulated with dihydrotestosterone (DHT 1 μM, 16 h) after grown for 2 days in FAD. Right panel, Western blot analysis of CDCP1, p-SRC, SRC, p-AKT, AKT, p-ERK1/2 and ERK1/2 in LNCaP grown in full media, FAD and stimulated with DHT (1 μM, 16 h) after grown for 2 days in FAD.
Tissue and cell lysates were prepared with RIPA buffer (Catalog #9806, Cell Signaling Technology) with PMSF (Phenylmethanesulfonyl fluoride; Catalog #329-98-6, Sigma). Protein concentrations of the lysates were measured by Pierce BCA Protein Assay Kit (Catalog #23225, Thermo Scientific). The lysates were then resolved by SDS-PAGE and immunoblotted with the indicated antibodies.
RNA was extracted using TRIzol® Plus RNA Purification Kit (Catalog #12183555, Life technologies). 1 μg of total RNA was used for cDNA synthesis using SuperScript® III Platinum® One-Step qRT-PCR Kit (Catalog #11732-020, Life technologies). […] All qRT-PCR data presented was normalized using GAPDH, HRPT or 18S rRNA.

LNCaP xenografts = test: LNCaP xenograft tumour growth in SCID mice; assay type: in vivo, mouse; settings: single agent, LNCaP s.c. in SCID mice, one week; Enzalutamide 10 mg/kg
Text: (§1) FIG. 7A. Left panel, Quantification of fold change in growth by crystal violet in LNCaP kept in full media and in LNCaP kept in full media and treated with mAb-CUB4. Right panel, Quantification of fold change in growth by crystal violet in LNCaP kept in FAD and in LNCaP kept in FAD and treated with mAb-CUB4. B. Left panel, Xenografts tumour growth (mm3) of LNCaP cell line untreated, treated with Enzalutamide, Immuno-liposome and treated with the combination of Enzalutamide and immuno-liposome. Right panel, quantification of fold change in protein levels of Cleaved Caspase 3 in LNCaP xenografts groups. C. Western blot analysis of CDCP1 expression, p-SRC and Cleaved Caspase 3 in LNCaP xenografts groups.
(§2) These findings were further validated in LNCaP-abl cells, an androgen insensitive cell line. […] Given the fact that CDCP1 expression is elevated by androgen deprivation, we postulated that targeting CDCP1 could serve as a powerful tool to treat prostate cancers treated with enzalutamide. […] Since senescence works as a double edge sword that may stimulate cancer cell growth in certain conditions, we decided to develop a novel anti-CDCP1 dual steal immunoliposome carrying doxorubicin (anti-CDCP1 ILs) to eliminate the CDCP1 overexpressing resistant cells.

[1] = tested on: CDCP1 in LNCaP xenografts; test: Western blot of CDCP1 in LNCaP xenografts; assay type: in vivo, mouse; settings: Enzalutamide alone
Text: as §1, §2

| SMILES | CDCP1 expression and protein levels (CDCP1 in LNCaP ADS cells) | effect on tumor growth (LNCaP xenografts) | levels of CDCP1 by Western blot [1] |
| --- | --- | --- | --- |
| C[C@]12CCC(=O)C[C@@H]1CC[C@@H]1[C@@H]2CC[C@]2(C)[C@@H](O)CC[C@@H]12 [DHT, 5α-Dihydrotestosterone] | reduced its expression and protein levels |  |  |
| CNC(=O)c1ccc(N2C(=S)N(c3ccc(C#N)c(C(F)(F)F)c3)C(=O)C2(C)C)cc1F [Enzalutamide, 4-[3-[4-cyano-3-(trifluoromethyl)phenyl]-5,5-dimethyl-4-oxo-2-sulfanylideneimidazolidin-1-yl]-2-fluoro-N-methylbenzamide] |  | minor effect on tumor growth | significant increased levels of CDCP1 |
